Measurements reported in paper PMC4226571, “The E6AP Binding Pocket of the HPV16 E6 Oncoprotein Provides a Docking Site for a Small Inhibitory Peptide Unrelated to E6AP, Indicating Druggability of E6” (PLoS ONE, 2014).
“Also recorded” adds a separate entry of the source.

Legend:
[1] = tested on: wt HPV16 E6; test: Mammalian two-hybrid assay, wt HPV16 E6; assay type: cell-based; details: HeLa; peptide-GAL4-BD + wt HPV16 E6-VP16-AD; relative to pACT control = 1.0; three experiments in duplicate
Excerpt: Results were obtained from three individual experiments, each performed in duplicates. Standard deviations are indicated. Asterisks above horizontal lines indicate statistically significant differences from pACT-transfected cells, with p-values of ≤0.001 (***). […] The horizontal line indicates 1.5-fold inhibition. Individual amino acid exchanges are indicated below each column. Error bars indicate standard deviation values. (D) Statistical analysis of the differential binding behaviour of HPV16 E6 mutants 16E6R55A and 16E6Y70A. […] Asterisks above the horizontal lines indicate statistically significant reductions of luciferase activities, with p-values of ≤0.01 (**) or ≤0.001 (***). Error bars indicate standard deviation values.
HeLa (HPV18-positive) and MRI-H-186 (HPV16-positive) cervical carcinoma cells, and H1299 lung cancer cells were grown in DMEM (pH 7.2), supplemented with 10% fetal bovine serum (Gibco Life Technologies, Carlsbad, CA, USA), 2 mM L-glutamine, 100 U/ml penicillin and 100 µg/ml streptomycin (Sigma-Aldrich, Saint Lois, MO). Plasmids were transfected by calcium phosphate co-precipitation as described. […] E6 constructs used in Figure 7C contain an additional flag-tag between E6 and the VP16-AD. Mutant derivatives of HPV16, HPV18 and HPV31 E6, as specified in the text, were generated by site directed mutagenesis and verified by DNA sequencing. […]

[2] = tested on: HPV16 E6; details: ref [17]; cited from earlier work
Excerpt: In previous work, we therefore followed an alternative strategy to screen for E6 inhibitors. […] In order to identify possible structural determinants for this discrepancy, we compared the amino acid sequences of the contact region in HPV16 E6 with the corresponding domain of HPV18 E6.

KEKEEYNSNSSSIASIGLI [pep11**m]
increase of luciferase activity (intracellular E6/peptide binding) [1]: did not stimulate luciferase activities; also recorded: does not bind to HPV16 E6 | binding to HPV16 E6 (in words) [2]: defective for E6 binding
